The results in this text go back to US9802941B2, “Compounds and methods for inhibiting histone demethylases” (Gilead Sciences, Inc., priority 2014, dated 2017).

What all share (assay type): biochemical
In one assay the target is T1, KDM4C (JMJD2C) (Homo sapiens, UniProt Q9H3R0).
T1 construct: KDM4C; BRIC, Denmark; 1-349; E. coli; host or cells: E. coli
T1 sequence (Q9H3R0 1-349): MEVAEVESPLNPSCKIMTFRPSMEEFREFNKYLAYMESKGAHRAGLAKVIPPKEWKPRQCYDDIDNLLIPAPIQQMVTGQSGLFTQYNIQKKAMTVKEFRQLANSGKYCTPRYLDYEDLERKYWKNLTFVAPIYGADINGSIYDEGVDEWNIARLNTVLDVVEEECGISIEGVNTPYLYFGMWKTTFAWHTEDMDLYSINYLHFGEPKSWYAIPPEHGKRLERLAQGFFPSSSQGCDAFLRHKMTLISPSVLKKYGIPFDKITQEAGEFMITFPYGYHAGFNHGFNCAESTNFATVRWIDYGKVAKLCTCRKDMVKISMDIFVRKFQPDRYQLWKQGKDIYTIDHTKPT
Put plainly: Histone lysine demethylase AlphaLISA assay, KDM4C. The procedure:
(§1) The compounds of the application, or a pharmaceutically acceptable salt, or solvate, or prodrug thereof, are tested in an in vitro AlphaLISA assay. Enzymes are dissolved in enzyme buffer and incubated before they are added to DMSO solutions of compounds of the application, or a pharmaceutically acceptable salt, or solvate, or prodrug thereof, in enzyme buffer. The reaction mixture is then incubated for an additional period of time before substrate solution is added and then the resulting mixture again incubated. Acceptor beads and suspended Epigenetic Buffer from stock are added and the suspension is again incubated before a suspension of streptavidin donor beads in Epigenetic Buffer is added. After an additional period of incubation, the plates are read.
(§2) The ability of compounds of the application to inhibit the histone lysine demethylase activity in vitro of different enzymes was determined.
(§3) The reaction mixture was incubated for another 10 minutes before 5 μL of substrate solution was added and the resulting mixture was then incubated at room temperature. […] After incubation at room temperature in the dark, the plates were read.
(§4) Enzyme Buffer: 50 mM Hepes (pH 7.4-8.0), 0.003-0.01% Tween-20, 0.1% BSA; 5 μM (NH4)2Fe(SO4)2.

For a further assay, the target named is T2, KDM2B (FBXL10) (Homo sapiens, UniProt Q8NHM5).
T2 construct: KDM2B; BPS,; 1-650; Bac; purchased BPS Bioscience, US; host or cells: baculovirus system
T2 sequence (Q8NHM5 1-650): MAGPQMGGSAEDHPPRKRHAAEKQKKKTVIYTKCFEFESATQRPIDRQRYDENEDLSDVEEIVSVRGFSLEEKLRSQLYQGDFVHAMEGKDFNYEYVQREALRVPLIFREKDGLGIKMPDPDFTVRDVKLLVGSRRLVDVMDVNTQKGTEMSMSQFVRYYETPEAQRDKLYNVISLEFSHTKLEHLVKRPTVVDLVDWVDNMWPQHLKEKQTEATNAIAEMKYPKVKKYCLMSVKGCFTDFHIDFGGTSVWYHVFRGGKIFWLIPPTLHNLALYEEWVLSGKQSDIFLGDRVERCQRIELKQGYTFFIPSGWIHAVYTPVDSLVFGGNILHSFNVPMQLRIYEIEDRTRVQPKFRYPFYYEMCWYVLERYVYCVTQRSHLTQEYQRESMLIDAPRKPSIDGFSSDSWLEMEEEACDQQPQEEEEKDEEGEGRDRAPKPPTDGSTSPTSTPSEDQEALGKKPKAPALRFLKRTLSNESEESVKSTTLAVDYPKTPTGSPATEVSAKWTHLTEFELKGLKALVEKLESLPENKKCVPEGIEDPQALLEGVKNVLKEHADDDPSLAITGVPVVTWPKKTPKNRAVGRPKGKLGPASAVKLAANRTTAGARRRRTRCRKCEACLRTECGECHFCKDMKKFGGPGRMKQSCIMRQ
Put plainly: Histone lysine demethylase AlphaLISA assay, KDM2B. The procedure:
as §1, §2, §3, §4

In the next assay the target is T3, PHF8 (KDM7) (Homo sapiens, UniProt Q9UPP1).
T3 construct: KDM7 (PHF8); BRIC; 1-1322; Bac
Put plainly: Histone lysine demethylase AlphaLISA assay, PHF8. The method, then:
as §1, §2, §3, §4
For orientation: Bead proximity is the source of the signal in Alpha formats.

The target in the next assay is T4, KDM5B (PLU-1) (Homo sapiens, UniProt Q9UGL1).
T4 construct: BRIC; 1-809; E. coli; host or cells: E. coli
T4 sequence (Q9UGL1 1-809): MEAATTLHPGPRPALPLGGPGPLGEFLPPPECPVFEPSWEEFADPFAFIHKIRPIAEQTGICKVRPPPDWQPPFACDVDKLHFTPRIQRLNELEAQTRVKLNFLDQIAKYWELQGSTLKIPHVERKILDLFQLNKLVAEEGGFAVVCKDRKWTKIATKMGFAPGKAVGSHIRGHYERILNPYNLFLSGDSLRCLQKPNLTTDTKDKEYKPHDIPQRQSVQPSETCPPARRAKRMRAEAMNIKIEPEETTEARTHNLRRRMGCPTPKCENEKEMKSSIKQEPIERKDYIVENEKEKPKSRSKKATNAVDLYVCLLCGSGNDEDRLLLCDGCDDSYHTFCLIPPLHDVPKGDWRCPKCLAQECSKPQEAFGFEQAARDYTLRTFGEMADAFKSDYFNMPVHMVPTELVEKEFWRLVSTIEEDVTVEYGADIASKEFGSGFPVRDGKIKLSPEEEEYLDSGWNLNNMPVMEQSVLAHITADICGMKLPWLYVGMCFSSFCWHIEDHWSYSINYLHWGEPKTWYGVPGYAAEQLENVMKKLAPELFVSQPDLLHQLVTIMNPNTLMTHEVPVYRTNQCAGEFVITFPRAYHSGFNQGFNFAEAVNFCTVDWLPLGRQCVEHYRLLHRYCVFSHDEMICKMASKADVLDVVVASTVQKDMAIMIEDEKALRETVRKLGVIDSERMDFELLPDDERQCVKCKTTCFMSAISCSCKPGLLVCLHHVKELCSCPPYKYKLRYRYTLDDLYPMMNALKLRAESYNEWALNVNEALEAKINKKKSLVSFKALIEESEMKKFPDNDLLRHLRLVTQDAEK
Description: Histone lysine demethylase AlphaLISA assay, KDM5B. The method, then:
as §1, §2, §3, §4

Where [1] appears, read: AlphaLISA assay, read-out: HDME Inhibition KDM4C (IC50).
[2] abbreviates: AlphaLISA, in vitro, read-out: HDME Inhibition KDM4C.
Setting [3] is: AlphaLISA, in vitro, read-out: HDME Inhibition KDM2B.
The mark [4] stands for this setting: AlphaLISA, in vitro, read-out: HDME Inhibition PHF8.
The mark [5] stands for this setting: AlphaLISA assay, read-out: HDME Inhibition KDM5B (IC50).
Setting [6] is: AlphaLISA, in vitro, read-out: HDME Inhibition KDM5B.
[7] abbreviates: AlphaLISA assay, read-out: HDME Inhibition PHF8 (IC50).

Molecules are shown by their SMILES. pIC50: −log10 of the molar value. Read-outs that look alike come from different tables or passages of the source.

For the compound `CCn1cnc2cc(Cn3cnnc3CNCc3cc(C(=O)O)cc(C)n3)ccc21` [Compound 41, 2-{[({4-[(1-ethyl-1H-1,3-benzodiazol-5-yl)methyl]-4H-1,2,4-triazol-3-yl}methyl)amino]methyl}-6-methylpyridine-4-carboxylic acid], the pIC50 on KDM4C (JMJD2C) (setting [1]) was < 5.00; at KDM4C (JMJD2C) (setting [2]) it was < 5.00; at KDM2B (FBXL10) (setting [3]), 5.78; at PHF8 (KDM7) (setting [4]), 5.18; at KDM5B (PLU-1) (setting [5]), < 5.00; at KDM5B (PLU-1) (setting [6]), < 5.00.
As to `C/C=C/c1cnc(CNCc2cc(C(=O)O)cc(C)n2)n1Cc1ccc(F)cc1` [Compound 42, 2-{[({1-[(4-fluorophenyl)methyl]-5-[(1E)-prop-1-en-1-yl]-1H-imidazol-2-yl}methyl)amino]methyl}-6-methylpyridine-4-carboxylic acid], the pIC50 on KDM4C (JMJD2C) (setting [1]) is < 5.00; on KDM4C (JMJD2C) (setting [2]), < 5.00; on KDM2B (FBXL10) (setting [3]), 6.18; at PHF8 (KDM7) (setting [4]), 6.07; on KDM5B (PLU-1) (setting [5]), < 5.00; on KDM5B (PLU-1) (setting [6]), < 5.00.
As to `CSc1cnc(CNCc2cc(C(=O)O)cc(C)n2)n1Cc1ccc(F)cc1` [Compound 43, 2-{[({1-[(4-fluorophenyl)methyl]-5-(methylsulfanyl)-1H-imidazol-2-yl}methyl)amino]methyl}-6-methyl pyridine-4-carboxylic acid], the pIC50 is < 5.00 on KDM4C (JMJD2C) (setting [1]); < 5.00 at KDM4C (JMJD2C) (setting [2]); 6.35 at KDM2B (FBXL10) (setting [3]); 6.06 at PHF8 (KDM7) (setting [4]); < 5.00 on KDM5B (PLU-1) (setting [5]); < 5.00 on KDM5B (PLU-1) (setting [6]).
`Cc1cc(C(=O)O)cc(CNCc2nnc(CN(C)C)n2Cc2ccc(F)cc2)n1` [Compound 44, 2-{[({5-[(dimethylamino)methyl]-4-[(4-fluorophenyl)methyl]-4H-1,2,4-triazol-3-yl}methyl)amino]methyl}-6-methylpyridine-4-carboxylic acid]: the pIC50 at KDM4C (JMJD2C) (setting [1]) is < 5.00; on KDM4C (JMJD2C) (setting [2]), < 5.00; at KDM2B (FBXL10) (setting [3]) it was 5.70; at PHF8 (KDM7) (setting [4]) it was 5.62; at KDM5B (PLU-1) (setting [5]), < 5.00; at KDM5B (PLU-1) (setting [6]), < 5.00.
Consider `Cc1cc(C(=O)O)cc(CNCc2nnc(C3CCC3)n2Cc2ccc(F)cc2)n1` [Compound 45, 2-{[({5-cyclobutyl-4-[(4-fluorophenyl)methyl]-4H-1,2,4-triazol-3-yl}methyl)amino]methyl}-6-methylpyridine-4-carboxylic acid], for which the pIC50 at KDM4C (JMJD2C) (setting [1]) is < 5.00; on KDM4C (JMJD2C) (setting [2]), < 5.00; at KDM2B (FBXL10) (setting [3]), 6.30; at PHF8 (KDM7) (setting [4]), 6.31; on KDM5B (PLU-1) (setting [5]), < 5.00; at KDM5B (PLU-1) (setting [6]), < 5.00.
Regarding `Cc1cc(C(=O)O)cc(CNCc2nnc(CCN(C)C)n2Cc2ccc(F)cc2)n1` [Compound 46, 2-{[({5-[2-(dimethylamino)ethyl]-4-[(4-fluorophenyl)methyl]-4H-1,2,4-triazol-3-yl}methyl)amino]methyl}-6-methylpyridine-4-carboxylic acid], the pIC50 at KDM4C (JMJD2C) (setting [1]) is < 5.00; at KDM4C (JMJD2C) (setting [2]), < 5.00; at KDM2B (FBXL10) (setting [3]), 5.64; on PHF8 (KDM7) (setting [4]), 5.64; on KDM5B (PLU-1) (setting [5]) it was < 5.00; on KDM5B (PLU-1) (setting [6]), < 5.00.
For the compound `Cc1cc(C(=O)O)cc(CNCc2nnc(C)n2-c2cccc(Cl)c2)n1` [Compound 58, 2-[({[4-(3-chlorophenyl)-5-methyl-4H-1,2,4-triazol-3-yl]methyl}amino)methyl]-6-methylpyridine-4-carboxylic acid], the pIC50 at KDM2B (FBXL10) (AlphaLISA assay, read-out: HDME Inhibition KDM2B (IC50)) is < 5.00; at KDM2B (FBXL10) (setting [3]) it was < 5.00; on PHF8 (KDM7) (setting [7]) it was < 5.00; at PHF8 (KDM7) (setting [4]), < 5.00; on KDM5B (PLU-1) (setting [5]), < 5.00; at KDM5B (PLU-1) (setting [6]) it was < 5.00.
With `Cc1cc(C(=O)O)cc(CNCCc2ncccc2C2=CCCC2)n1` [Compound 59, 2-[({2-[3-(cyclopent-1-en-1-yl)pyridin-2-yl]ethyl}amino)methyl]-6-methylpyridine-4-carboxylic acid], the results for the pIC50 at KDM2B (FBXL10) (setting [3]), on PHF8 (KDM7) (setting [7]) and on PHF8 (KDM7) (setting [4]) were 5.56, < 5.00 and < 5.00, respectively.
Regarding `COc1ccc(CC(C)C)c(CNCc2cc(C(=O)O)cc(C)n2)n1` [Compound 74, 2-[({[6-methoxy-3-(2-methylpropyl)pyridin-2-yl]methyl}amino)methyl]-6-methylpyridine-4-carboxylic acid], the pIC50 on KDM2B (FBXL10) (setting [3]) is 5.73; on PHF8 (KDM7) (setting [4]), 5.42; at KDM5B (PLU-1) (setting [5]), < 5.00; on KDM5B (PLU-1) (setting [6]) it was < 5.00.
Consider `Cc1cc(C(=O)O)cc(CNCc2nocc2COc2ccc(F)cc2)n1` [Compound 76, 2-[({[4-(4-fluorophenoxymethyl)-1,2-oxazol-3-yl]methyl}amino)methyl]-6-methylpyridine-4-carboxylic acid], for which the pIC50 at KDM2B (FBXL10) (setting [3]) is 5.32; at PHF8 (KDM7) (setting [7]), < 5.00; at PHF8 (KDM7) (setting [4]) it was < 5.00; at KDM5B (PLU-1) (setting [5]) it was < 5.00; on KDM5B (PLU-1) (setting [6]) it was < 5.00.
Take `COc1ccc(OCCc2ccccc2)c(CNCc2cc(C(=O)O)cc(C)n2)n1` [Compound 104, 2-[({[6-methoxy-3-(2-phenylethoxy)pyridin-2-yl]methyl}amino)methyl]-6-methylpyridine-4-carboxylic acid]: the pIC50 is 6.84 on KDM2B (FBXL10) (setting [3]), 6.40 on PHF8 (KDM7) (setting [4]), < 5.00 on KDM5B (PLU-1) (setting [5]) and < 5.00 at KDM5B (PLU-1) (setting [6]).
For `COC(=O)c1cn(Cc2ccc(F)cc2)c(CNCc2cc(C(=O)O)cc(CO)n2)n1` [Compound 106, 2-{[({1-[(4-fluorophenyl)methyl]-4-(methoxycarbonyl)-1H-imidazol-2-yl}methyl)amino]methyl}-6-(hydroxymethyl)pyridine-4-carboxylic acid], the pIC50 is 5.51 on KDM2B (FBXL10) (setting [3]), 5.56 on PHF8 (KDM7) (setting [4]), < 5.00 at KDM5B (PLU-1) (setting [5]) and < 5.00 at KDM5B (PLU-1) (setting [6]).
